# Patent US5759577A, “Controlled release of steroids from sugar coatings” (American Home Products Corporation, priority 1996, dated 1998)
# Assays:
# [1] = in vitro dissolution of medrogestone, USP XX <711> Apparatus 2, 50 r.p.m.; type: physicochemical; conditions: sugar coat containing 0.4% microcrystalline cellulose versus conventional tablet
# Procedure: A sugar coating containing 5 mg of medrogestone in a matrix of sucrose with 0.4% microcrystalline cellulose and 0.5% polyvinyl pyrrolidone was applied to a sealed and sugar-coated tablet core.
# [2] = in vitro dissolution of steroid, Method A (USP XX <711> Apparatus 2, 50 rpm); type: physicochemical; conditions: Examples 1-3, Methods A, B and C, no microcrystalline cellulose
# Description: CV represents the coefficient of variation between these trials expressed as a percentage.
SMILES,dissolution of medrogestone (in words) [1],release from the sugar coating (in words) [2]
CC(=O)[C@@]1(C)CC[C@H]2[C@@H]3C=C(C)C4=CC(=O)CC[C@]4(C)[C@H]3CC[C@@]21C [medrogestone],dramatic effect of reduced dissolution,
CC(=O)O[C@]1(C(C)=O)CC[C@H]2[C@@H]3C[C@H](C)C4=CC(=O)CC[C@]4(C)[C@H]3CC[C@@]21C [medroxyprogesterone acetate],,released from the sugar coating extremely rapidly
